Laboratory results from ChEMBL document CHEMBL1159343, “Isolation and structure of palstatin from the Amazon tree Hymeneae palustris(1)” (2003).
≈ marks a conversion by molar mass, not a printed value. Calls of active or inactive are those of the source. The rule behind the calls is not given here.

What was measured:
Enterobacter cloacae = assay: Antimicrobial activity against Enterobacter cloacae; assay type: functional, organism-based
Streptococcus pneumoniae = assay: Antimicrobial activity against Streptococcus pneumoniae; assay type: functional, organism-based
Cryptococcus neoformans = assay: Antimicrobial activity against Cryptococcus neoformans; assay type: functional, organism-based
Candida albicans = assay: Antimicrobial activity against Candida albicans; assay type: functional, organism-based
Escherichia coli = assay: Antimicrobial activity against Escherichia coli; assay type: functional
Staphylococcus aureus = assay: Antimicrobial activity against Staphylococcus aureus; assay type: functional, organism-based
BXPC-3 = assay: Cytotoxicity against human BxPC3 cells after 48 hrs by SRB assay; assay type: functional; details: BXPC-3, 48 h
DU-145 = assay: Cytotoxicity against human DU145 cells after 48 hrs by SRB assay; assay type: functional; details: DU-145, 48 h
[1] = tested on: Stenotrophomonas maltophilia; assay: Antimicrobial activity against Stenotrophomonas maltophilia; assay type: functional, organism-based
KM-20L2 = assay: Cytotoxicity against human KM20L2 cells after 48 hrs by SRB assay; assay type: functional; details: KM-20L2, 48 h
Micrococcus luteus = assay: Antimicrobial activity against Micrococcus luteus; assay type: functional, organism-based
P388 = assay: Cytotoxicity against mouse P388 cells after 48 hrs by SRB assay; assay type: functional; details: P388, 48 h
SF-268 = assay: Cytotoxicity against human SF268 cells after 48 hrs by SRB assay; assay type: functional; details: SF-268, 48 h
NCI-H460 = assay: Cytotoxicity against human NCI-H460 cells after 48 hrs by SRB assay; assay type: functional; details: NCI-H460, 48 h
Neisseria gonorrhoeae = assay: Antimicrobial activity against Neisseria gonorrhoeae; assay type: functional
MCF7 = assay: Cytotoxicity against human MCF7 cells after 48 hrs by SRB assay; assay type: functional; details: MCF7, 48 h

Compound	Activity (Enterobacter cloacae)	Activity (Streptococcus pneumoniae)	Activity (Cryptococcus neoformans)	Activity (Candida albicans)	MIC (Escherichia coli)	Activity (Staphylococcus aureus)	GI50 (BXPC-3)	GI50 (DU-145)	Activity [1]	GI50 (KM-20L2)	Activity (Micrococcus luteus)	GI50 (P388)	GI50 (SF-268)	GI50 (NCI-H460)	MIC (Neisseria gonorrhoeae)	GI50 (MCF7)
COc1cc([C@H]2Oc3cc(-c4cc(=O)c5c(O)cc(O)cc5o4)cc(OC)c3O[C@@H]2CO)ccc1O	inactive	inactive	inactive	inactive	32 µg/mL (≈ 64.7 µM)	inactive	1.8 µg/mL (≈ 3.64 µM)	1.8 µg/mL (≈ 3.64 µM)	inactive	1.9 µg/mL (≈ 3.84 µM)	inactive	2.7 µg/mL (≈ 5.46 µM)	2.2 µg/mL (≈ 4.45 µM)	2 µg/mL (≈ 4.04 µM)	0.625 µg/mL (≈ 1.26 µM)	2.4 µg/mL (≈ 4.85 µM)
COc1cc([C@H]2Oc3cc(-c4cc(=O)c5c(O)cc(O)cc5o4)ccc3O[C@@H]2CO)ccc1O [HYDNOCARPIN]	inactive	inactive	inactive	inactive	–	inactive	1.5 µg/mL (≈ 3.23 µM)	1.9 µg/mL (≈ 4.09 µM)	inactive	2 µg/mL (≈ 4.31 µM)	inactive	9.5 µg/mL (≈ 20.5 µM)	2.6 µg/mL (≈ 5.6 µM)	2.3 µg/mL (≈ 4.95 µM)	0.5 µg/mL (≈ 1.08 µM)	2.7 µg/mL (≈ 5.81 µM)
COc1cc(-c2cc(=O)c3c(O)cc(O)cc3o2)ccc1O [CHRYSOERIOL]	inactive	inactive	inactive	inactive	–	inactive	2.6 µg/mL (≈ 8.66 µM)	1.1 µg/mL (≈ 3.66 µM)	inactive	2.5 µg/mL (≈ 8.33 µM)	inactive	4 µg/mL (≈ 13.3 µM)	1.7 µg/mL (≈ 5.66 µM)	2.1 µg/mL (≈ 6.99 µM)	–	3.1 µg/mL (≈ 10.3 µM)
O=c1cc(-c2ccc(O)c(O)c2)oc2cc(O)cc(O)c12 [LUTEOLIN]	inactive	inactive	inactive	inactive	64 µg/mL (≈ 224 µM)	inactive	> 10 µg/mL	4.4 µg/mL (≈ 15.4 µM)	inactive	> 10 µg/mL	inactive	> 10 µg/mL	9 µg/mL (≈ 31.4 µM)	3.8 µg/mL (≈ 13.3 µM)	16 µg/mL (≈ 55.9 µM)	9.4 µg/mL (≈ 32.8 µM)
COc1cc([C@H]2Oc3cc(-c4cc(=O)c5c(O)cc(O)cc5o4)cc(OC)c3O[C@@H]2CO)cc(OC)c1O [PALSTATIN]	inactive	inactive	inactive	inactive	–	inactive	3.2 µg/mL (≈ 6.1 µM)	> 10 µg/mL	inactive	> 10 µg/mL	inactive	8.5 µg/mL (≈ 16.2 µM)	> 10 µg/mL	5.9 µg/mL (≈ 11.2 µM)	1 µg/mL (≈ 1.91 µM)	3.6 µg/mL (≈ 6.86 µM)
COc1cc(-c2cc(=O)c3c(O)cc(O)cc3o2)cc(OC)c1O [TRICIN]	inactive	inactive	inactive	inactive	–	inactive	7.5 µg/mL (≈ 22.7 µM)	4.6 µg/mL (≈ 13.9 µM)	inactive	> 10 µg/mL	inactive	> 10 µg/mL	3 µg/mL (≈ 9.08 µM)	6.5 µg/mL (≈ 19.7 µM)	–	7.7 µg/mL (≈ 23.3 µM)
